Source: article PMC8922281, “Synthesis and In Vitro Biological Evaluation of Quinolinyl Pyrimidines Targeting Type II NADH-Dehydrogenase (NDH-2)” (ACS Infectious Diseases, 2022)
≈ marks a conversion by molar mass, not a printed value. Where “and” joins values, the source holds several entries; their conditions need not be identical. Equal values may be shown once.

Legend:
MtNDH-2 = MtNDH-2 (Mycobacterium tuberculosis, UniProt P95160); assay: biochemical; parameters: species or system M. tuberculosis; conditions: MtNDH-2 IC50
Sequence of MtNDH-2 (P95160 2-463, added parts left off): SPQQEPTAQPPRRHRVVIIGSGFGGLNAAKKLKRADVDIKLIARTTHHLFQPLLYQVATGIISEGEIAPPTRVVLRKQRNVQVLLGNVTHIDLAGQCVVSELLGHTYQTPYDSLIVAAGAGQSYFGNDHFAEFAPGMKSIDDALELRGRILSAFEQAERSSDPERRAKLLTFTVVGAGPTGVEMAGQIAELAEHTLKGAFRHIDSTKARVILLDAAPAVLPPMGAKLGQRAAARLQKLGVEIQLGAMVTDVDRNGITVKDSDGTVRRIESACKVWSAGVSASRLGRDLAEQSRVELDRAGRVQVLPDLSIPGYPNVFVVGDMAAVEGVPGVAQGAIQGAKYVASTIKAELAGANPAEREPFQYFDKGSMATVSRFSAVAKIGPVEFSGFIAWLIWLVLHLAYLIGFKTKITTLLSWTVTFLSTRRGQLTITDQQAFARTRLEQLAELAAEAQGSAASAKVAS

[1] = Cytotoxicity on the MRC-5 cell line (resazurin); type: cell-based; conditions: human, MRC-5SV2 cells, MRC-5SV2, 3 days
Experimental: MRC-5SV2 cells were cultured in Earl’s MEM + 5% FCSi. Assays were performed in 96-well microtiter plates, each well containing about 10^4 cells/well. After 3 days of incubation with or without compounds, cell viability was assessed fluorimetrically after the addition of resazurin (λex 550 nm, λem 590 nm). The results were expressed as % reduction in cell growth/viability compared to untreated control wells and CC50 was determined. Testing/retesting strategy was as described above for HepG2 cells.

[2] = system: P. aeruginosa (PAO1, wild-type); assay: MIC on ESKAPE pathogens, P. aeruginosa wild-type; type: cell-based; conditions: Pseudomonas aeruginosa, PAO1, P. aeruginosa PAO1, wild-type; read-out: MIC Pa WT
[3] = system: A. baumannii (ATCC 19606, wild-type); assay: MIC on ESKAPE pathogens, A. baumannii; type: cell-based; conditions: Acinetobacter baumannii, ATCC19606; A. baumannii ATCC 19606, wild-type; read-out: MIC Ab WT
[4] = system: E. coli (D22, lpxC mutant, drug-hypersensitive); assay: microbe, parasite or virus in culture; type: cell-based; conditions: Escherichia coli, read-out: MIC Ec D22
[5] = system: P. aeruginosa (PAO750 efflux-defective mutant, isogenic to PAO1); assay: microbe, parasite or virus in culture; type: cell-based; conditions: Pseudomonas aeruginosa, PAO1, read-out: MIC Pa efflux
[6] = system: M. tuberculosis strain H37Rv (ATCC 25618); assay: MIC on M. tuberculosis by resazurin reduction microplate assay (REMA); type: cell-based; conditions: Mycobacterium tuberculosis, M. tuberculosis H37Rv, read-out: MIC Mtb
[7] = system: S. aureus (ATCC 29213, wild-type); assay: MIC on ESKAPE pathogens, S. aureus; type: cell-based; conditions: Staphylococcus aureus, ATCC29213
[8] = system: E. coli (ATCC 25922, wild-type); assay: MIC on ESKAPE pathogens, E. coli wild-type; type: cell-based; conditions: Escherichia coli, ATCC25922; E. coli ATCC 25922, wild-type; read-out: MIC Ec WT
MsNDH-2 = MsNDH-2 (Mycolicibacterium smegmatis, UniProt A0QYD6); assay: Inhibition of MsNDH-2 (NADH oxidation with menadione, absorbance at 340 nm); type: biochemical, M. smegmatis
Sequence of MsNDH-2 (A0QYD6 1-457): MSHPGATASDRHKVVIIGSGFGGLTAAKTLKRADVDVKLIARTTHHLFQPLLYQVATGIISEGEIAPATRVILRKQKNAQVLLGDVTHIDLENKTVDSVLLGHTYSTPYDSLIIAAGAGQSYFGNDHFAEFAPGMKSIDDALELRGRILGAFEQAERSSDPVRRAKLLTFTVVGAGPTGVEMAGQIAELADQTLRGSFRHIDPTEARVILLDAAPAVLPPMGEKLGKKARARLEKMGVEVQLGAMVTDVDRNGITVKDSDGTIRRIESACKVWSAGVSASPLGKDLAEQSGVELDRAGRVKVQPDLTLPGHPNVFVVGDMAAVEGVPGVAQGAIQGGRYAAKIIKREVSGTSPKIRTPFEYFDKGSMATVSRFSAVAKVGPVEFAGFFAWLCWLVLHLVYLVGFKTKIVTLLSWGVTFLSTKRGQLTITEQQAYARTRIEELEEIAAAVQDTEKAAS

[9] = system: K. pneumonia (ATCC 13833, wild-type); assay: MIC on ESKAPE pathogens, K. pneumoniae
[10] = system: E. coli (ΔtolC efflux-defective mutant, isogenic to ATCC 25922); assay: microbe, parasite or virus in culture; type: cell-based; conditions: Escherichia coli, ATCC25922, read-out: MIC Ec ΔtolC
[11] = 95% confidence interval in parentheses, 50 nM enzyme, 50 μM menadione, >100: no significant inhibition at 100 μM
[12] = same IC50 given in μg/mL to assist comparisons with MICs

SMILES	IC50 (MtNDH-2)	IC50 at 3 days ([1]; resazurin) [µM]	IC50 at 3 days ([1]; value in parentheses) [µg/mL]	MIC [2] [µg/mL]	MIC [3] [µg/mL]	MIC [4] [µg/mL]	MIC [5] [µg/mL]	MIC [6] [µg/mL]	MIC [7] [µg/mL]	MIC [8] [µg/mL]	IC50 (MsNDH-2; [11]) [µM]	IC50 (MsNDH-2; [12]) [µM]	MIC Kp WT [9] [µg/mL]	MIC [10] [µg/mL]
CC(C)(C)OC(=O)NC1CCN(c2cc(Nc3ccc4nc(-c5ccc(F)cc5)cc(N)c4c3)nc(N)n2)CC1 [Compound 8i, tert-Butyl (1-(2-Amino-6-((4-amino-2-(4-fluorophenyl)quinolin-6-yl)amino)pyrimidin-4-yl)piperidin-4-yl)carbamate]	0.441 µM	1.3	0.7	64 (≈ 118 µM)	8 (≈ 14.7 µM)	4 (≈ 7.34 µM)	32 (≈ 58.8 µM)	6.1 (≈ 11.2 µM)	1 (≈ 1.84 µM)	64 (≈ 118 µM)	0.95	0.918	64 (≈ 118 µM)	8 (≈ 14.7 µM)
CN(C)c1cc(Nc2ccc3nc(-c4ccc(F)cc4)cc(N)c3c2)nc(N)n1 [Compound 8k, N^4-(4-Amino-2-(4-fluorophenyl)quinolin-6-yl)-N^6,N^6-dimethylpyrimidine-2,4,6-triamine]	1.3 µM and 1.31 µM	1.8	0.7	> 64	8 (≈ 20.5 µM)	8 (≈ 20.5 µM)	4 (≈ 10.3 µM)	5.9 (≈ 15.2 µM)	8 (≈ 20.5 µM)	32 (≈ 82.2 µM)	2.7	2.82	64 (≈ 164 µM)	2 (≈ 5.14 µM)
CN(CCO)c1cc(Nc2ccc3nc(-c4ccc(F)cc4)cc(N)c3c2)nc(N)n1 [Compound 8l, 2-((2-Amino-6-((4-amino-2-(4-fluorophenyl)quinolin-6-yl)amino)pyrimidin-4-yl)(methyl)amino)ethan-1-ol]	11 µM and 11.4 µM	7.8	3.3	> 64	> 64	8 (≈ 19.1 µM)	> 64	9.8 (≈ 23.4 µM)	32 (≈ 76.3 µM)	16 (≈ 38.1 µM)	16	16.2	>64	8 (≈ 19.1 µM)
Nc1nc(Nc2ccc3nc(-c4ccc(F)cc4)cc(N)c3c2)cc(N2CCC(CO)CC2)n1 [Compound 8n, (1-(2-Amino-6-((4-amino-2-(4-fluorophenyl)quinolin-6-yl)amino)pyrimidin-4-yl)piperidin-4-yl)methanol]	4.1 µM and 4.13 µM	3.7	1.7	> 64	64 (≈ 139 µM)	32 (≈ 69.6 µM)	64 (≈ 139 µM)	17.7 (≈ 38.5 µM)	32 (≈ 69.6 µM)	64 (≈ 139 µM)			>64	16 (≈ 34.8 µM)
CN1CCCC(COc2cc(Nc3ccc4nc(-c5ccc(F)cc5)cc(N)c4c3)nc(N)n2)C1 (stereo not drawn) [Compound 9c, N^6-(2-Amino-6-((1-methylpiperidin-3-yl)methoxy)pyrimidin-4-yl)-2-(4-fluorophenyl)quinoline-4,6-diamine]	3.3 µM and 3.38 µM			> 64	> 64	32 (≈ 67.6 µM)	16 (≈ 33.8 µM)	37.5 (≈ 79.2 µM)	64 (≈ 135 µM)	64 (≈ 135 µM)	14	13.7	>64	16 (≈ 33.8 µM)
Nc1nc(Nc2ccc3nc(-c4ccc(F)cc4)cc(N)c3c2)cc(=O)[nH]1 [Compound 12, 2-Amino-6-((4-amino-2-(4-fluorophenyl)quinolin-6-yl)amino)pyrimidin-4(3H)-one]	1.5 µM and 1.49 µM			> 64	32 (≈ 88.3 µM)	16 (≈ 44.2 µM)	32 (≈ 88.3 µM)	9.2 (≈ 25.4 µM)	32 (≈ 88.3 µM)	32 (≈ 88.3 µM)	> 20	> 19.9	32 (≈ 88.3 µM)	16 (≈ 44.2 µM)
Nc1cc(-c2ccc(F)cc2)nc2ccc(Nc3cc(Cl)ncn3)cc12 [Compound 14, N^6-(6-Chloropyrimidin-4-yl)-2-(4-fluorophenyl)quinoline-4,6-diamine]	1.5 µM			> 64	> 64	64 (≈ 175 µM)	> 64	4.8 (≈ 13.1 µM)	64 (≈ 175 µM)	> 64	5.1	5.19	>64	> 64
